Test [1] can be described thus: In vitro inhibitory activity against Geranylgeranyl transferase in the geranylgeranylation of Rap1A protein protein in NIH 3T3 cells transformed with activated H-ras. Type of test: cell-based, Mus musculus. The note with it: nih3t3.
Test [2] deals with Protein farnesyltransferase (Mus musculus, UniProt Q61239+Q8K2I1). Description: Inhibitory concentration against Farnesyltransferase for Farnesylation of H-ras protein InNIH 3T3 cells transformed with activated H-ras. Format: cell-based, NIH3T3.
For test [3], the target named is Geranylgeranyl transferase type I (Bos taurus, UniProt P29702+Q5EAD5). Put plainly: In vitro inhibitory activity against Geranylgeranyl transferase in the geranylgeranylation of H-ras-CAIL protein. Type of test: protein-complex assay.
For test [4], the target named is Protein farnesyltransferase (Bos taurus, UniProt P29702+P49355). Description: Inhibitory concentration was evaluated against Farnesyltransferase in the farnesylation of H-ras protein. Type of test: protein-complex assay.

SMILES strings stand for the structures.

In the case of `COC(=O)[C@H](CCSC)NC(=O)[C@@H]1C[C@H](Oc2ccccc2)CN1C[C@H](/C=C/[C@@H](N)CS)C(C)C`, the IC50 in test [1] is over 25000 nM; in test [2], 40 nM.
Taken in the same sequence, the figures for `COC(=O)[C@H](CCSC)NC(=O)[C@@H]1C[C@H](Oc2cccc3c2CCCC3)CN1C/C=C/C(N)CS` (some centres not stated) were 3100 nM and over 10000 nM.
For the compound `COC(=O)[C@H](CCSC)NC(=O)[C@H]1C[C@H](Oc2ccccc2)CN1C/C=C/[C@@H](N)CS`, the 50% inhibitory concentration (IC50) in test [2] was over 50000 nM.
Turning to `CSCC[C@H](NC(=O)[C@@H]1C[C@H](Oc2ccccc2)CN1C(=O)[C@H](/C=C/[C@@H](N)CS)C(C)C)C(=O)O`, the concentration for half-maximal inhibition (IC50) was found to be 11 nM in test [3] and 18 nM in test [4].
As to `COC(=O)[C@H](CCSC)NC(=O)[C@@H]1C[C@H](Oc2ccccc2)CN1CCCC[C@@H](N)CS`, the 50% inhibitory concentration (IC50) is over 50000 nM in test [1] and 350 nM in test [2].
For `COC(=O)[C@H](CCSC)NC(=O)[C@@H]1C[C@H](Oc2cccc3ccccc23)CN1C/C=C/C(N)CS` (some centres not stated), the IC50 is over 50000 nM in test [1] and 22500 nM in test [2].
Turning to `CSCC[C@H](NC(=O)[C@@H]1C[C@H](Oc2cccc3ccccc23)CN1C/C=C/C(N)CS)C(=O)O` (some centres not stated), the half-inhibitory concentration (IC50) is 200 nM in test [3] and 100 nM in test [4].
Regarding `CSCC[C@H](NC(=O)[C@@H]1C[C@H](Oc2ccc(-c3ccccc3)cc2)CN1C/C=C/[C@@H](N)CS)C(=O)O`, the IC50 stood at 250 nM in test [3] and 35 nM in test [4].
Taken in the same sequence, the figures for `CSCC[C@H](NC(=O)[C@@H]1C[C@H](Oc2ccccc2)CN1CC/C=C/[C@@H](N)CS)C(=O)O` were 570 nM and 20 nM.
As for `CSCC[C@H](NC(=O)[C@H](/C=C\[C@@H](/C=C/[C@@H](N)CS)C(C)C)Cc1ccccc1)C(=O)O`, the IC50 in test [3] was 1 nM; in test [1], over 100000 nM; in test [4], 26 nM; in test [2] it was 370 nM.
For `CSCC[C@H](NC(=O)[C@@H]1C[C@H](Oc2ccc(C(F)(F)F)cc2)CN1C/C=C/[C@@H](N)CS)C(=O)O`, the IC50 in test [3] and in test [4] was 110 nM each time.
With `CSCC[C@@H](NC(=O)[C@H]1C[C@H](Oc2ccccc2)CN1C/C=C/[C@@H](N)CS)C(=O)O`, the half-maximal inhibitory concentration (IC50) in test [3] is 11000 nM; in test [4] it was 3300 nM.
`COC(=O)[C@H](CCSC)NC(=O)[C@@H]1C[C@@H](Oc2ccccc2)CN1C/C=C/[C@@H](N)CS`: the IC50 in test [1] and in test [2] was over 50000 nM each time.
As for `CSCC[C@H](NC(=O)[C@@H]1C[C@H](Oc2ccc(C(C)C)cc2)CN1C/C=C/[C@@H](N)CS)C(=O)O`, the half-inhibitory concentration (IC50) in test [3] came to 210 nM; in test [4], 82 nM.
Turning to `CSCC[C@H](NC(=O)[C@@H]1C[C@H](Oc2ccccc2)CN1CCCC[C@@H](N)CS)C(=O)O`, the results for the IC50 in test [3] and in test [4] were 3300 nM and 20 nM, respectively.
On to `COC(=O)[C@H](CCSC)NC(=O)[C@@H]1C[C@H](Oc2ccc(C(C)C)cc2)CN1C/C=C/[C@@H](N)CS`, for which the 50% inhibitory concentration (IC50) in test [1] was found to be 390 nM; in test [2], 3000 nM.
Regarding `CSCC[C@H](NC(=O)[C@@H]1C[C@H](Oc2ccccc2)CN1C(=O)CCC[C@@H](N)CS)C(=O)O`, the IC50 came to 100 nM in test [3] and 2 nM in test [4].
For the compound `COC(=O)[C@H](CCSC)NC(=O)[C@@H]1C[C@H](Oc2ccccc2)CN1CC/C=C/[C@@H](N)CS`, the 50% inhibitory concentration (IC50) in test [1] was over 50000 nM; in test [2], 490 nM.
Regarding `CSCC[C@H](NC(=O)[C@@H]1C[C@@H](Oc2ccccc2)CN1C/C=C/[C@@H](N)CS)C(=O)O`, the 50% inhibitory concentration (IC50) in test [3] stood at 8000 nM; in test [4] it was 4000 nM.
As for `COC(=O)[C@H](CCSC)NC(=O)[C@@H]1C[C@H](Oc2ccccc2)CN1C(=O)[C@H](/C=C/[C@@H](N)CS)C(C)C`, the IC50 was over 50000 nM in test [1] and 840 nM in test [2].
As for `CSCC[C@H](NC(=O)[C@@H]1C[C@H](Oc2cccc3c2CCCC3)CN1C/C=C/[C@@H](N)CS)C(=O)O`, the concentration for half-maximal inhibition (IC50) turned out to be 89 nM in test [3] and 47 nM in test [4].
`COC(=O)[C@H](CCSC)NC(=O)[C@@H]1C[C@H](Oc2ccc(C(F)(F)F)cc2)CN1C/C=C/[C@@H](N)CS`: the half-inhibitory concentration (IC50) in test [1] and in test [2] was over 50000 nM throughout.
In the case of `CCCc1ccccc1O[C@H]1C[C@H](C(=O)N[C@H](CCSC)C(=O)OC)N(C/C=C/[C@@H](N)CS)C1`, the IC50 in test [1] and in test [2] was over 10000 nM throughout.
For `COC(=O)[C@@H](CCSC)NC(=O)[C@@H]1C[C@H](Oc2ccccc2)CN1C/C=C/[C@@H](N)CS`, the IC50 in test [1] amounted to 21900 nM; in test [2], 5300 nM.
For `COC(=O)[C@H](CCSC)NC(=O)[C@@H]1C[C@H](Oc2ccc(OC)c(OC)c2)CN1C/C=C/[C@@H](N)CS` the same measures were over 50000 nM and over 50000 nM.
Consider `CCCc1ccccc1O[C@H]1C[C@@H](C(=O)N[C@@H](CCSC)C(=O)O)N(C/C=C/[C@@H](N)CS)C1`, for which the 50% inhibitory concentration (IC50) stood at 170 nM in test [3] and 210 nM in test [4].
Taken in the same sequence, the figures for `CCCCc1ccc(O[C@H]2C[C@@H](C(=O)N[C@@H](CCSC)C(=O)O)N(C/C=C/[C@@H](N)CS)C2)cc1` were 180 nM and 87 nM.
On to `COC(=O)[C@H](CCSC)NC(=O)[C@@H]1C[C@H](Oc2ccc(-c3ccccc3)cc2)CN1C/C=C/[C@@H](N)CS`, for which the values for the IC50 in test [1] and in test [2] were 3200 nM and 3300 nM, respectively.
Consider `CCCCc1ccc(O[C@H]2C[C@@H](C(=O)N[C@@H](CCSC)C(=O)OC)N(C/C=C/[C@@H](N)CS)C2)cc1`, for which the IC50 in test [1] was 3100 nM; in test [2] it was 3200 nM.
Consider `CSCCC(NC(=O)[C@@H]1C[C@H](Oc2ccccc2)CN1C/C=C/[C@@H](N)CS)C(=O)O` (single isomer, unassigned), for which the IC50 in test [3] is 53 nM; in test [4], 57 nM.
With `CSCC[C@H](NC(=O)[C@@H]1C[C@H](Oc2ccccc2)CN1C[C@H](/C=C/[C@@H](N)CS)C(C)C)C(=O)O`, the half-inhibitory concentration (IC50) is 150 nM in test [3] and 17 nM in test [4].
As to `COc1ccc(O[C@H]2CC(C(=O)NC(CCSC)C(=O)O)N(C/C=C/[C@@H](N)CS)C2)cc1OC` (single isomer, unassigned), the IC50 in test [3] turned out to be 67000 nM; in test [4], 450 nM.
As for `COC(=O)[C@H](CCSC)NC(=O)[C@@H]1C[C@H](Oc2ccccc2)CN1C(=O)CCC[C@@H](N)CS`, the 50% inhibitory concentration (IC50) in test [1] was over 50000 nM; in test [2] it was 2000 nM.

(Values after ChEMBL document CHEMBL1132533, “Synthesis and evaluation of hydroxyproline-derived isoprenyltransferase inhibitors” (Bioorg Med Chem Lett, 1999).)
